Measurements: patent US10774082B2, “Quinazoline compound” (Astellas Pharma Inc., priority 2017, dated 2020)

Test system: NCI-H1373 tumor
Assay: Antitumor effect in NCI-H1373 tumor-bearing mouse
Assay type: in vivo
Conditions: 10 mg/kg orally once a day for 13 or 14 days
Protocol: Evaluation of Antitumor Effect in Human KRAS G12C Mutation Positive Non-Small Cell Lung Cancer Strain NCI-H1373 Tumor-Bearing Mouse
A cell suspension prepared per 3.0×10^7/mL by suspending NCI-H1373 cells in PBS, an equivalent amount of Matrigel (Becton, Dickinson and Company) was added thereto, and the cell suspension was subcutaneously planted in a volume of 100 μL to male nude mice of 4-5 weeks old (CAnN.Cg-Foxnlnu/CrlCrlj (nu/nu), Charles River Laboratories Japan, Inc.). Approximately 2 weeks after planting, groups were divided so that tumor volume and body weight between the groups were almost equivalent to each other, and administration of the test compound was started from the next day. The test was conducted with five mice in a solvent group and five mice in a test compound administration group, and an aqueous solution of 6% 2-hydroxypropyl-β-cyclodextrin (Sigma-Aldrich Co. LLC) was orally administered to the solvent group and an aqueous solution of 6% 2-hydroxypropyl-β-cyclodextrin which the test compound (10 or 40 mg/kg) was mixed was orally administered to the test compound administration group. The administration was performed once a day for 13 or 14 days, and tumor diameter and volume were measured twice a week. For calculation of tumor volume, the following formula was used. [tumor volume (mm^3)]=[major diameter (mm) of tumor]×[minor diameter (mm) of tumor]^2×0.5
The tumor growth inhibition rate (%) by the test compound was calculated by setting the tumor volume of the test compound administration group on the day before the administration started as 100% inhibition, and the tumor volume of the solvent group on the last day of administration as 0% inhibition. In addition, in a case where the tumor volume of the test compound administration group was lower than the tumor volume on the day before the administration started, the tumor regression rate (%) of the test compound was calculated by setting the tumor volume on the day before the administration started as 0% regression, and the tumor volume 0 as 100% regression.

Row | SMILES | Antitumor effect: tumor regression rate
1 | C=CC(=O)N1CC2(CCN(c3nc(OC4CCN(CCOC)CC4)nc4c(OCC(F)(F)F)c(-c5c(C)ccc6[nH]ncc56)c(C5CC5)cc34)CC2)C1 [Example 35] | 72% regression
2 | C=CC(=O)N1CC2(CCN(c3nc(OC4CCN(CCOCC)CC4)nc4c(OCC(F)(F)F)c(-c5c(C)ccc6[nH]ncc56)c(C=C)cc34)CC2)C1 [Example 37] | 58% regression
3 | C=CC(=O)N1CC2(CCN(c3nc(OC4CCN(CC(C)(C)O)CC4)nc4c(OCC(F)(F)F)c(-c5c(C)ccc6[nH]ncc56)c(C=C)cc34)CC2)C1 [Example 40] | 15% regression
